In brackets after ≈: the same amount, converted by molar mass. Like-named read-outs stand apart in the source and are kept apart here.
Experiments:
[1] = tested on: Pseudomonas aeruginosa 9027; assay: In vitro antibacterial activity (MIC), agar two-fold dilution; assay type: cell-based
Procedure: (§1) The numbers in Tables represent the minimal inhibitory concentration (MIC, μg/ml) of the corresponding strains and MIC was determined in accordance with the agar culture medium two-fold dilution method by using a Mueller-Hinton agar.
(§2) Hoechst standard strains were used. […]

[2] = tested on: Pseudomonas aeruginosa 1771; assay: as above; assay type: cell-based
Procedure: as §1, §2

[3] = tested on: Staphylococcus aureus SG 511; assay: as above; assay type: cell-based
Procedure: as §1, §2

[4] = tested on: Streptococcus pyogenes 308A; assay: as above; assay type: cell-based
Procedure: as §1, §2

[5] = tested on: Klebsiella aerogenes 1552E; assay: as above; assay type: cell-based
Procedure: as §1, §2

[6] = tested on: Staphylococcus aureus 285; assay: as above; assay type: cell-based
Procedure: as §1, §2

[7] = tested on: Klebsiella aerogenes 1082E; assay: as above; assay type: cell-based
Procedure: as §1, §2

[8] = tested on: Pseudomonas aeruginosa 1592E; assay: as above; assay type: cell-based
Procedure: as §1, §2

[9] = tested on: Streptococcus faecium MD 8b; assay: as above; assay type: cell-based
Procedure: as §1, §2

Escherichia coli O 78 = assay: as above; assay type: cell-based; settings: 10^7 CFU/ml, 37° C., 18 hours
Procedure: as §1, §2

[10] = tested on: Streptococcus pyogenes 77A; assay: as above; assay type: cell-based
Procedure: as §1, §2

Salmonella typhimurium = assay: as above; assay type: cell-based
Procedure: as §1, §2

[11] = tested on: Staphylococcus aureus 503; assay: as above; assay type: cell-based
Procedure: as §1, §2

[12] = tested on: Enterobacter cloacae P 99; assay type: cell-based; settings: Mueller-Hinton agar, 10^7 CFU/ml, 37° C., 18 hours
Procedure: as §1
(§3) Hoechst standard strains were used.

Escherichia coil TEM = assay: In vitro antibacterial activity (MIC), agar two-fold dilution; assay type: cell-based, Escherichia coli
Procedure: as §1, §2

Escherichia coil 1507E = assay: as above; assay type: cell-based, Escherichia coli; settings: Mueller-Hinton agar, 10^7 CFU/ml, 37° C., 18 hours
Procedure: as §1, §2

Escherichia coil DC 0 = assay: as above; assay type: cell-based, Escherichia coli
Procedure: as §1, §2

Escherichia coil DC 2 = assay: as above; assay type: cell-based, Escherichia coli
Procedure: as §1, §2

[13] = tested on: Enterobacter cloacae 1321E; assay: as above; assay type: cell-based; settings: Mueller-Hinton agar, 10^7 CFU/ml, 37° C., 18 hours
Procedure: as §1, §3

[14] = tested on: Pseudomonas aeruginosa 1771M; assay: as above; assay type: cell-based; settings: 18 h
Procedure: as §1, §2

[15] = Pseudomonas aeruginosa 9027, Mueller-Hinton agar, 10^7 CFU/ml, 37° C., 18 hours
[16] = Pseudomonas aeruginosa 1771, Mueller-Hinton agar, 10^7 CFU/ml, 37° C., 18 hours
[17] = Staphylococcus aureus SG 511, Mueller-Hinton agar, 10^7 CFU/ml, 37° C., 18 hours
[18] = Streptococcus pyogenes 308A, Mueller-Hinton agar, 10^7 CFU/ml, 37° C., 18 hours
[19] = Klebsiella aerogenes 1552E, Mueller-Hinton agar, 10^7 CFU/ml, 37° C., 18 hours
[20] = Staphylococcus aureus 285, Mueller-Hinton agar, 10^7 CFU/ml, 37° C., 18 hours
[21] = Klebsiella aerogenes 1082E, Mueller-Hinton agar, 10^7 CFU/ml, 37° C., 18 hours
[22] = Pseudomonas aeruginosa 1592E, Mueller-Hinton agar, 10^7 CFU/ml, 37° C., 18 hours
[23] = Streptococcus faecium MD 8b, Mueller-Hinton agar, 10^7 CFU/ml, 37° C., 18 hours
[24] = Streptococcus pyogenes 77A, Mueller-Hinton agar, 10^7 CFU/ml, 37° C., 18 hours
[25] = Salmonella typhimurium, Mueller-Hinton agar, 10^7 CFU/ml, 37° C., 18 hours
[26] = Staphylococcus aureus 503, Mueller-Hinton agar, 10^7 CFU/ml, 37° C., 18 hours
[27] = Escherichia coil TEM, Mueller-Hinton agar, 10^7 CFU/ml, 37° C., 18 hours
[28] = Escherichia coil DC 0, Mueller-Hinton agar, 10^7 CFU/ml, 37° C., 18 hours
[29] = Escherichia coil DC 2, Mueller-Hinton agar, 10^7 CFU/ml, 37° C., 18 hours

| Structure (SMILES) | MIC [1, 15] | MIC [2, 16] | MIC [3, 17] | MIC [4, 18] | MIC [5, 19] | MIC [6, 20] | MIC [7, 21] | MIC [8, 22] | MIC [9, 23] | MIC (Escherichia coli O 78; Mueller-Hinton agar) | MIC [10, 24] | MIC (Salmonella typhimurium; [25]) | MIC [11, 26] | MIC [12] | MIC (Escherichia coil TEM; [27]) | MIC (Escherichia coil 1507E) | MIC (Escherichia coil DC 0; [28]) | MIC (Escherichia coil DC 2; [29]) | MIC [13] | further results |
| --- | --- | --- | --- | --- | --- | --- | --- | --- | --- | --- | --- | --- | --- | --- | --- | --- | --- | --- | --- | --- |
| COc1c(N2CC3CCCNC3C2)c(F)cc2c(=O)c(C(=O)C[N+](=O)[O-])cn(C3CC3)c12.Cl (racemic) [C, 1-cyclopropyl-3-nitroacetyl-6-fluoro-8-methoxy-7-[(trans-piperidinopyrrolidine)-8-yl]-4-oxo-1,4-dihydroquinoline hydrochloride] | 0.781 µg/mL | 0.781 µg/mL | 0.098 µg/mL | 0.781 µg/mL | 0.013 µg/mL | 0.025 µg/mL | 0.049 µg/mL | 0.781 µg/mL | 0.391 µg/mL | < 2 ng/mL | 0.391 µg/mL | 7 ng/mL | 0.025 µg/mL | 4 ng/mL | 4 ng/mL | 0.025 µg/mL | 0.195 µg/mL | 0.098 µg/mL | < 2 ng/mL | – |
| COc1c(N2C[C@@H]3CCCN[C@@H]3C2)c(F)cc2c(=O)c(C(=O)C[N+](=O)[O-])cn(C3CC3)c12.Cl (racemic) [D, 1-cyclopropyl-3-nitroacetyl-6-fluoro-8-methoxy-7-[(cis-piperidinopyrrolidine)-8-yl]-4-oxo-1,4-dihydroquinoline hydrochloride] | 1.563 µg/mL | 0.781 µg/mL | 0.195 µg/mL | 1.563 µg/mL | 0.049 µg/mL | 0.391 µg/mL | 0.049 µg/mL | 0.781 µg/mL | 0.391 µg/mL | 49 ng/mL | 0.391 µg/mL | 98 ng/mL | 0.391 µg/mL | 13 ng/mL | 98 ng/mL | 0.098 µg/mL | 0.195 µg/mL | 0.098 µg/mL | 13 ng/mL | – |
| Cl.O=C(C[N+](=O)[O-])c1cn(C2CC2)c2c(Cl)c(N3CC4CCCNC4C3)c(F)cc2c1=O (racemic) [B, 1-cyclopropyl-3-nitroacetyl-6-fluoro-8-chloro-7-[(trans-piperidinopyrrolidine)-8-yl]-4-oxo-1,4-dihydroquinoline hydrochloride] | 0.781 µg/mL | 1.563 µg/mL | 0.098 µg/mL | 0.781 µg/mL | 0.098 µg/mL | 0.098 µg/mL | 0.098 µg/mL | 0.781 µg/mL | 0.195 µg/mL | < 25 ng/mL | 0.195 µg/mL | 49 ng/mL | 0.195 µg/mL | 25 ng/mL | 49 ng/mL | 0.049 µg/mL | 0.391 µg/mL | 0.098 µg/mL | 13 ng/mL | – |
| O=C(O)c1cn(C2CC2)c2cc(N3CCNCC3)c(F)cc2c1=O [Ciprofloxacin, ciprofloxacin, reference compound] | – | – | – | – | – | – | – | – | – | – | – | – | – | – | – | – | – | – | – | MIC ([1]; Pseudomonas aeruginosa, 9027, 18 h): 0.391 µg/mL (≈ 1.18 µM); MIC ([2]; Pseudomonas aeruginosa, 1771, 18 h): 0.195 µg/mL (≈ 0.589 µM); MIC ([3]; Staphylococcus aureus, SG511, 18 h): 0.195 µg/mL (≈ 0.589 µM); MIC ([4]; Streptococcus pyogenes, 308A, 18 h): 3.12 µg/mL (≈ 9.43 µM); MIC ([5]; Klebsiella aerogenes, 1552E, 18 h): 0.013 µg/mL (≈ 0.0392 µM); MIC ([6]; Staphylococcus aureus, 285, 18 h): 0.391 µg/mL (≈ 1.18 µM); MIC [14]: 0.049 µg/mL (≈ 0.148 µM); MIC ([7]; Klebsiella aerogenes, 1082E, 18 h): < 0.002 µg/mL; MIC ([8]; Pseudomonas aeruginosa, 1592E, 18 h): 0.195 µg/mL (≈ 0.589 µM); MIC ([9]; Enterococcus faecium, MD8B, 18 h): 0.781 µg/mL (≈ 2.36 µM); MIC (Escherichia coli O 78; O78, Mueller-Hinton agar, read-out: MIC): < 2 ng/mL; MIC ([10]; Streptococcus pyogenes, 77A, 18 h): 0.781 µg/mL (≈ 2.36 µM); MIC (Salmonella typhimurium; Salmonella enterica, TYPHIMURIUM, 18 h): 7 ng/mL (≈ 0.0211 µM); MIC ([11]; Staphylococcus aureus, 503, 18 h): 0.781 µg/mL (≈ 2.36 µM); MIC (Escherichia coil TEM; Escherichia, 18 h): 7 ng/mL (≈ 0.0211 µM); MIC (Escherichia coil 1507E; read-out: MIC): 0.007 µg/mL (≈ 0.0211 µM); MIC (Escherichia coil DC 0; Escherichia, DC0, 18 h): 0.195 µg/mL (≈ 0.589 µM); MIC (Escherichia coil DC 2; Escherichia, DC2, 18 h): 0.098 µg/mL (≈ 0.296 µM) |
| O=C(O)c1cn(C2CC2)c2c(Cl)c(N3CC4CCCNC4C3)c(F)cc2c1=O (stereo not drawn) [A, 1-cyclopropyl-6-fluoro-7-[(trans-piperidinopyrrolidine)-8-yl]-8-chloro-1,4-dihydroguinoline-4-oxo-3-carboxylicacid] | 0.781 µg/mL (≈ 1.92 µM) | 0.781 µg/mL (≈ 1.92 µM) | 0.025 µg/mL (≈ 0.0616 µM) | 0.391 µg/mL (≈ 0.963 µM) | 0.049 µg/mL (≈ 0.121 µM) | 0.025 µg/mL (≈ 0.0616 µM) | < 0.002 µg/mL | 0.781 µg/mL (≈ 1.92 µM) | 0.098 µg/mL (≈ 0.241 µM) | < 2 ng/mL | 0.098 µg/mL (≈ 0.241 µM) | < 2 ng/mL | 0.025 µg/mL (≈ 0.0616 µM) | 4 ng/mL (≈ 0.00986 µM) | 7 ng/mL (≈ 0.0172 µM) | 0.025 µg/mL (≈ 0.0616 µM) | 0.195 µg/mL (≈ 0.48 µM) | 0.013 µg/mL (≈ 0.032 µM) | < 2 ng/mL | – |

Reference: patent US5770597A, “Quinolone derivatives and processes for preparing the same” (Korea Research Institute of Chemical Technology, priority 1993, dated 1998)
